The record followed here is ChEMBL document CHEMBL1201862, “PubChem BioAssay data set” (2004).

Usually IC50 stands for the midpoint of a concentration-inhibition curve. As a reminder, the EC50 is the concentration giving half of the maximal effect.

The target in assay [1] is DNA dC->dU-editing enzyme APOBEC-3A (Homo sapiens, UniProt P31941). In words: Dose Response confirmation of small molecule APOBEC3A DNA Deaminase Inhibitors via a fluorescence-based single-stranded DNA deaminase assay. [Related pubchem assays (depositor defined):AID493011, AID493024]. It counts as functional.
Assay [2] deals with DNA dC->dU-editing enzyme APOBEC-3G (Homo sapiens, UniProt Q9HC16). It counts as functional.
For assay [3], the target named is Envelope glycoprotein gp160 (Human immunodeficiency virus 1, UniProt Q6QLK5). In words: inhibitors of HIV fusion peptide binding, primary screen, biochemical, uHTS, fluorescence dequenching (AID 1986).
Assay [4] has as its system HEK293. Kind of assay: NOD1 signaling inhibitors, primary screen, cell-based, luminescence, uHTS (AID 1578). It counts as functional. The following applies: Homo sapiens.
Assay [5] concerns HEK293. Kind of assay: cells. It counts as functional, cell-based. The following applies: Homo sapiens.
Assay [6] has as its system HEK293. In words: cells. It counts as functional, cell-based. The following applies: Homo sapiens. The source holds these as a separate data set.
Assay [7] addresses T1, Nucleotide-binding oligomerization domain-containing protein 2 (Homo sapiens, UniProt Q9HC29). Kind of assay: NOD2 signaling inhibitors, cell-based, luminescence, uHTS, HEK293 (AID 1566). It counts as functional.
The test system of assay [8] is HEK293. In words: NOD2 signaling inhibitors in MDP-stimulated cells, cell-based, uHTS, luminescence (AID 2001). The assay is classed as functional. Conditions: Homo sapiens.
In assay [9] the test system is HEK293. In words: cells. The assay is classed as functional, cell-based. Conditions: Homo sapiens. This is another data set of the same source.
Assay [10] concerns the target T1, Nucleotide-binding oligomerization domain-containing protein 2. Kind of assay: NOD2 inhibitors, SAR follow-up, set 2 (AID 2475). It counts as functional.
Assay [11] deals with T2, Tumor necrosis factor (Homo sapiens, UniProt P01375). Kind of assay: TNFa-triggered NF-kB activation inhibitors, SAR follow-up, cell-based, revised (AID 2337). The assay is classed as functional.
For assay [12], the system named is HEK293. In words: SAR analysis of compounds that are cytotoxic to HEK293 - Set 2. [Related pubchem assays (depositor defined):AID1575, AID1578, AID1849, AID2001, AID2333, AID2334, AID2335, AID2337, AID2800]. The assay is classed as functional, cell-based. Conditions: Homo sapiens.
For assay [13], the target named is T3, Nucleotide-binding oligomerization domain-containing protein 1 (Homo sapiens, UniProt Q9Y239).
T3 sequence (Q9Y239 whole entry): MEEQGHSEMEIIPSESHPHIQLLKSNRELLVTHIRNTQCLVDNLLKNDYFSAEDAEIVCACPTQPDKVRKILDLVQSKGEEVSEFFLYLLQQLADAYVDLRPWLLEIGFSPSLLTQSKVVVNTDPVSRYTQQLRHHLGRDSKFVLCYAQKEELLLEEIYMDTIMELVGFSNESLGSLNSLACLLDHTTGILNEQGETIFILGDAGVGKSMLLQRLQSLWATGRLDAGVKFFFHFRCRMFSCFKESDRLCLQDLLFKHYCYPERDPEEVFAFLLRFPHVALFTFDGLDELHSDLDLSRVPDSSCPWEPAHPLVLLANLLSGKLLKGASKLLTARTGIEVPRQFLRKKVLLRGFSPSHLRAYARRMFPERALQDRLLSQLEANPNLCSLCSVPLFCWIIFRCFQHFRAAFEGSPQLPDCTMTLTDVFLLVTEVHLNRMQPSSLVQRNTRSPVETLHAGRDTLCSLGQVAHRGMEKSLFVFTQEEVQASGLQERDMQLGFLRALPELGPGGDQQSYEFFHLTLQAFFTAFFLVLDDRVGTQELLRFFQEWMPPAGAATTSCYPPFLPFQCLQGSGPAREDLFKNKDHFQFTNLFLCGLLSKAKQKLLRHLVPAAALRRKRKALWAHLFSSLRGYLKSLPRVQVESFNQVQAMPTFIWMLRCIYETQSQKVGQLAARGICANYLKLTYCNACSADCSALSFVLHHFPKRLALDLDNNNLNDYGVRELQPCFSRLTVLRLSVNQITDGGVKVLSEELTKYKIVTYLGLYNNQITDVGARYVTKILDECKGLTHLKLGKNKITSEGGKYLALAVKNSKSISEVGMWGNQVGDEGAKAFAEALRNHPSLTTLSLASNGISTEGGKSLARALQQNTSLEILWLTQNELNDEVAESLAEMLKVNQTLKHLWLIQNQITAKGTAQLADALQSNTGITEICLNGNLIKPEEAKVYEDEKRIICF
In words: NOD1 signaling inhibitors, SAR follow-up, revised (AID 2333). It counts as functional.

In assay [14] the target is T3, Nucleotide-binding oligomerization domain-containing protein 1. In words: SAR analysis of compounds that inhibit NOD1 - Set 2. [Related pubchem assays (depositor defined):AID1566, AID1575, AID1578, AID1849, AID1852, AID2333, AID2335, AID2798]. It counts as functional.
Assay [15] addresses T2, Tumor necrosis factor. In words: TNFa-triggered NF-kB activation inhibitors, SAR follow-up, cell-based, set 2 (AID 2483). It counts as functional.
Assay [16] has as its target T1, Nucleotide-binding oligomerization domain-containing protein 2. In words: PubChem AID 2334. It counts as functional.
The subject of assay [17] is HEK293. In words: cells. Conditions: Homo sapiens.
Assay [18] concerns the target G-protein coupled receptor 55 (Homo sapiens, UniProt Q9Y2T6). Kind of assay: GPR55 agonists via beta-arrestin recruitment, primary screen, imaging, U2OS cells, beta-arrestin-GFP redistribution (AID 1961). The assay is classed as functional. (Recruitment of arrestin is a read-out of receptor activation apart from second messengers.)
Assay [19] has as its target T4, Sphingosine 1-phosphate receptor 4 (Homo sapiens, UniProt O95977).
T4 sequence (O95977 whole entry): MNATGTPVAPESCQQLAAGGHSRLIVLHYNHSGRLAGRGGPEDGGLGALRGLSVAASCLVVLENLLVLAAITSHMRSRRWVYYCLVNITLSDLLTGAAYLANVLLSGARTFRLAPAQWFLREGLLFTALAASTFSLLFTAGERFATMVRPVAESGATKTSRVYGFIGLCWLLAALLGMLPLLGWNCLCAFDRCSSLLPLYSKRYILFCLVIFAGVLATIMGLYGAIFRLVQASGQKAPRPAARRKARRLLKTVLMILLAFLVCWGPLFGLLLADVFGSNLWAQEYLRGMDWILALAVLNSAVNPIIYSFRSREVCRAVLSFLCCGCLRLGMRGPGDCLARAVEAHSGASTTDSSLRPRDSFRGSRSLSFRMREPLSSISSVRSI
In words: Late-stage fluorescence dose response cell-based assay to identify agonists of the Sphingosine 1-Phosphate Receptor 4 (S1P4): purchased compounds EC50. [Related pubchem assays (depositor defined):AID1509, AID1523, AID1563, AID1686, AID1701, AID1801]. The assay is classed as functional.

Molecules are shown by their SMILES. Calls of active or inactive are those of the source. Rule as the data show it, for most assays here: actives have a measured IC50 and inactives only a lower limit. Some results are limits rather than exact numbers.

T1 sequence (Q9HC29 whole entry, the tested form may be a part): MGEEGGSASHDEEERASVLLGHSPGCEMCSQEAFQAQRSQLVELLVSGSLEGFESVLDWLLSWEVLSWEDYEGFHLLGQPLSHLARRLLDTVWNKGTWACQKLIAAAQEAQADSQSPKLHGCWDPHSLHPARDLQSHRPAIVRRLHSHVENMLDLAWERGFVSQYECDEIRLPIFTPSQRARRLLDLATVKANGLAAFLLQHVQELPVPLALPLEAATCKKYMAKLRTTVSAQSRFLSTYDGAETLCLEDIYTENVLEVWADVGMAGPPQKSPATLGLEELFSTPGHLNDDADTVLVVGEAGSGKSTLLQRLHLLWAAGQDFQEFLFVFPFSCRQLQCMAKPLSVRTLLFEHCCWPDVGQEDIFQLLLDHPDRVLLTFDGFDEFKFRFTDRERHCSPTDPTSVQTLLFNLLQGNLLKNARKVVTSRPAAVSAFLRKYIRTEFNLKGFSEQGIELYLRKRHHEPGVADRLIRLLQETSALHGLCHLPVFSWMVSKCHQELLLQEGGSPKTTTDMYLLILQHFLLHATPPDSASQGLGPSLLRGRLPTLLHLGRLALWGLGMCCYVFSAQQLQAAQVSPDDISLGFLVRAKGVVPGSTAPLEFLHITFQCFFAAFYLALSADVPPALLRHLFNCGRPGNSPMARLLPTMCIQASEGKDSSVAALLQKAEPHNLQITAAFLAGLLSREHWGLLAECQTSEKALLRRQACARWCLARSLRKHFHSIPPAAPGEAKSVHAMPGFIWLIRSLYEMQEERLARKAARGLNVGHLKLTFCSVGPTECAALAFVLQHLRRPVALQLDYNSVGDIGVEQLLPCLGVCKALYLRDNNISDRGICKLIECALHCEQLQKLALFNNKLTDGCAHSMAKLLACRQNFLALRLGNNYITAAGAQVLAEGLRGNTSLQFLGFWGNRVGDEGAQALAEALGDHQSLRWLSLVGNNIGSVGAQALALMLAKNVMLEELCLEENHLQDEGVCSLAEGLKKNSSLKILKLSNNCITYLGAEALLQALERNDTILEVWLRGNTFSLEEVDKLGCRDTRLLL
T2 sequence (P01375 whole entry): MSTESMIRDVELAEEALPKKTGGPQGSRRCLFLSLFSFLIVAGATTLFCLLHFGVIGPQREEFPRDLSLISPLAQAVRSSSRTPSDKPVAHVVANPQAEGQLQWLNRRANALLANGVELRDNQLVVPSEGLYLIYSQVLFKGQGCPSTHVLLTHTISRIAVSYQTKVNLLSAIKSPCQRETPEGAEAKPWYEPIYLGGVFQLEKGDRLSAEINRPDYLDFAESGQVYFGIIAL
Chain of G-protein coupled receptor 55 (Q9Y2T6 whole entry): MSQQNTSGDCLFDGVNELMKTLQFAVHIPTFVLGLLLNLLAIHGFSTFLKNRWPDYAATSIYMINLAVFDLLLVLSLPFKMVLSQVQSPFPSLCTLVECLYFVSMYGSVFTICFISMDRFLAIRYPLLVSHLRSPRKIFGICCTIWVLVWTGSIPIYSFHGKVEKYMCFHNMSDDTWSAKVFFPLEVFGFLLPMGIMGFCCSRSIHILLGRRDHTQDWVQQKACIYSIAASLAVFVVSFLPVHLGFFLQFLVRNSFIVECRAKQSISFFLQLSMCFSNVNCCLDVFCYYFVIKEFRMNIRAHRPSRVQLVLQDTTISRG
Chain of Envelope glycoprotein gp160 (Q6QLK5 whole entry, the tested form may be a part): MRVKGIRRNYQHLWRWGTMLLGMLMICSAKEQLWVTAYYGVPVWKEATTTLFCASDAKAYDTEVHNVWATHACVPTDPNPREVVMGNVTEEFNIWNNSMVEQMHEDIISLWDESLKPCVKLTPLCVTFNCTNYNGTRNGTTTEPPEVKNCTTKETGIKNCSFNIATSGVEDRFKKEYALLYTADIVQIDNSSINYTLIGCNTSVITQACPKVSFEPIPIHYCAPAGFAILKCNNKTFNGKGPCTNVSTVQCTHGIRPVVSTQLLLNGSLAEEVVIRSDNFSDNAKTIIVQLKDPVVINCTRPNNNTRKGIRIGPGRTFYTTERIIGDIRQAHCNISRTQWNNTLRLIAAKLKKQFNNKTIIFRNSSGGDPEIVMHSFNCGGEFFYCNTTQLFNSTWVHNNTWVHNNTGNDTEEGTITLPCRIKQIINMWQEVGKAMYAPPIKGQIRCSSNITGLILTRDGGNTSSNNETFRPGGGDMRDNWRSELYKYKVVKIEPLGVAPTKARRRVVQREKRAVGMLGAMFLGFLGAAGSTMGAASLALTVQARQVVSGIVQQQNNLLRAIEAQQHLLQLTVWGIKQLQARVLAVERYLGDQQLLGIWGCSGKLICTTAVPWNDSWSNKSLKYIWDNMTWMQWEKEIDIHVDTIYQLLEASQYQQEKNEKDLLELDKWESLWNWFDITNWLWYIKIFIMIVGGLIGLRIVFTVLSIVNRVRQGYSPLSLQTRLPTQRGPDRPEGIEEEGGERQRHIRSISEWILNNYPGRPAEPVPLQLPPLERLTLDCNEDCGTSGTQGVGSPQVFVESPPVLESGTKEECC
Chain of DNA dC->dU-editing enzyme APOBEC-3A (P31941 whole entry): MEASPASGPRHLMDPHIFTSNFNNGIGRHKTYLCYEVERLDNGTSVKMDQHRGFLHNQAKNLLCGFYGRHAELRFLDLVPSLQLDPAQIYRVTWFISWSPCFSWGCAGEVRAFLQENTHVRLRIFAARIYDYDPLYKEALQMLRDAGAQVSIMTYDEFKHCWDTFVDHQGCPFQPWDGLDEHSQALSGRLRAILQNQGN
Chain of DNA dC->dU-editing enzyme APOBEC-3G (Q9HC16 whole entry, the tested form may be a part): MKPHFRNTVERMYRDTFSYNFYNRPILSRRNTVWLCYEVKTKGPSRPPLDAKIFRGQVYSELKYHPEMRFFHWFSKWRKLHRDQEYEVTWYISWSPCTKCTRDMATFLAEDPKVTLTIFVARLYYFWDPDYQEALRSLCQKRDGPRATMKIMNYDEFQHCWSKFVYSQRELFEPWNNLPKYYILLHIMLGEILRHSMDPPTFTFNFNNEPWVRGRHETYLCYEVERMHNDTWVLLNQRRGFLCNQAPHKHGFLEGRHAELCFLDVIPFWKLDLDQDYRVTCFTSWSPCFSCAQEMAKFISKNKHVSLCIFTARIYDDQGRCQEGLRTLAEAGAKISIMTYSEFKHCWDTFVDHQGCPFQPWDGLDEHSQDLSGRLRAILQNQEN

In the case of `O=C(CNC(=O)OCc1ccccc1)Nc1ccc(F)cc1`, the IC50 in assay [1] was 3.04 µM (active); in assay [2], 5.01 µM (active).
Consider `OCCOCCN1CCN(C(c2ccccc2)c2ccc(Cl)cc2)CC1` (centres undefined) [HYDROXYZINE PAMOATE], for which the half-inhibitory concentration (IC50) in [3] was 6.31 µM (active).
Take `Cc1cc(SCC(=O)OC/C(O)=C(\C#N)c2nc3ccccc3[nH]2)c(C)cc1Br`: the EC50 (with HEK293 [4]; in assay [7]) was > 20 µM (inactive) each time. In addition, the 50% inhibitory concentration (IC50) in the assay with HEK293 [5] is 18.9 µM (active); in the assay with HEK293 [6], > 20 µM (inactive); with HEK293 [8] it was 5.41 µM (inactive); with HEK293 [9] it was > 20 µM (inactive); in assay [10] it was 5.19 µM (active); at Tumor necrosis factor [11], > 20 µM (inactive). Moreover, the IC50 is > 20 µM (inactive) in the assay with HEK293 [12]; > 20 µM (inactive) in assay [13]; 5.95 µM (active) in assay [14]; > 20 µM (inactive) on Tumor necrosis factor [15]; > 20 µM (inactive) in [16]; > 20 µM (inactive) in the assay on HEK293 [17].
Regarding `Cc1ccc(C)n1-n1cnc2sc(-c3ccccc3)cc2c1=O`, in [18], the EC50 is 8.51 µM (active).
For the molecule `Cc1ccc(OCc2ccc(Cl)c(Cl)c2)c([N+](=O)[O-])n1`, in assay [19], the EC50 is > 50 µM (inactive).
